Where a name gives a salt, the structure may show the parent alone.
Legend:
[1] = test system: HT29: human colon cancer cell line; test: Proliferation IC50 assay, oxic/hypoxic, HT29; format: cell-based; settings: Table 3; for IC50: 4 h exposure under aerobic conditions; for HCR (hypoxic cytotoxicity ratio) HT29: IC50(aerobic)/IC10(hypoxic)
[2] = test system: SKOV3: human ovarian carcinoma cell line; test: Proliferation IC50 assay, oxic/hypoxic, SKOV3; format: cell-based; settings: Table 3; for IC50: 4 h exposure under aerobic conditions; for HCR (hypoxic cytotoxicity ratio) SKOV3: IC50(aerobic)/IC10(hypoxic)

In the case of COc1cc2cc(C(=O)N3CC(CCl)c4c3cc([N+](=O)[O-])c3ccc(C(=O)NCCN(C)C)cc43)[nH]c2c(OC)c1OC (centres unmarked) (as salt: HCl) [Compound 44, 1-(Chloromethyl)-N-[2-(dimethylamino)ethyl]-5-nitro-3-(5,6,7-trimethoxyindol-2-carbonyl)-1,2-dihydro-3H-benzo[e]indole-8-carboxamide], the melting point is reported as 228 to 229 °C (dec.).
For CN(C)CCOc1ccc2[nH]c(C(=O)N3CC(CCl)c4c3cc([N+](=O)[O-])c3c([N+](=O)[O-])cccc43)cc2c1 (centres unmarked) (as salt: HCl) [Compound 2, 1-(Chloromethyl)-3-(5-[2-(dimethylamino)ethoxy]indol-2-carbonyl)-5,6-dinitro-1,2-dihydro-3H-benzo[e]indole], the melting point was 225 to 226 °C.
For CN(C)CCOc1ccc2[nH]c(C(=O)N3CC(CCl)c4c3cc([N+](=O)[O-])c3cc(S(=O)(=O)NO)ccc43)cc2c1.Cl (centres unmarked) [Compound 30, 1-(Chloromethyl)-3-{5-[2-(dimethylamino)ethoxy]indol-2-carbonyl}-N-hydroxy-5-nitro-4,2-dihydro-3H-benzo[e]indole-7-sulfonamide hydrochloride], the IC50 [1] was 24 µM, the “HCR (hypoxic cytotoxicity ratio) HT29” value [1] was 160 and the IC50 [2] was 24 µM. For the same molecule, the “HCR (hypoxic cytotoxicity ratio) SKOV3” value [2] was 55.
For COc1cc2cc(C(=O)N3CC(CCl)c4c3cc([N+](=O)[O-])c3ccc(C(=O)NCCN(C)C)cc43)[nH]c2c(OC)c1OC (centres unmarked) [Compound 44, 1-(Chloromethyl)-N-[2-(dimethylamino)ethyl]-5-nitro-3-(5,6,7-trimethoxyindol-2-carbonyl)-1,2-dihydro-3H-benzo[e]indole-8-carboxamide], the IC50 ([1]; Homo sapiens, HT-29) was 1.3 µM, the “HCR (hypoxic cytotoxicity ratio) HT29” value [1] was 2.4 and the IC50 ([2]; Homo sapiens, SK-OV-3) was 2.5 µM. The “HCR (hypoxic cytotoxicity ratio) SKOV3” value [2] was 16.
For COC(=O)c1ccc2c([N+](=O)[O-])cc3c(c2c1)C(CCl)CN3C(=O)c1cc2cc(OCCN(C)C)ccc2[nH]1 (centres unmarked) [Compound 42, Methyl 1-(chloromethyl)-3-{5-[2-(dimethylamino)ethoxy]indol-2-carbonyl}-5-nitro-1,2-dihydro-3H-benzo[e]indole-8-carboxylate], the IC50 ([1]; Homo sapiens, HT-29) was 0.55 µM, the “HCR (hypoxic cytotoxicity ratio) HT29” value [1] was 1.6 and the IC50 ([2]; Homo sapiens, SK-OV-3) was 0.52 µM. For the same molecule, the “HCR (hypoxic cytotoxicity ratio) SKOV3” value [2] was 2.4.
With CN(C)CCOc1ccc2[nH]c(C(=O)N3CC(CCl)c4c3cc([N+](=O)[O-])c3cc([N+](=O)[O-])ccc43)cc2c1 (centres unmarked) [Compound 9, 1-(Chloromethyl)-3-{5-[2-(dimethylamino)ethoxy]indol-2-carbonyl}-5,7-dinitro-1,2-dihydro-3H-benzo[e]indole] the IC50 ([1]; Homo sapiens, HT-29) was 0.89 µM, the “HCR (hypoxic cytotoxicity ratio) HT29” value [1] was 9.6 and the IC50 ([2]; Homo sapiens, SK-OV-3) was 1.1 µM. The “HCR (hypoxic cytotoxicity ratio) SKOV3” value [2] was 9.3.
For CN(C)CCOc1ccc2[nH]c(C(=O)N3CC(CCl)c4c3cc([N+](=O)[O-])c3cc([N+](=O)[O-])ccc43)cc2c1 (centres unmarked) (as salt: HCl) [Compound 9, 1-(Chloromethyl)-3-{5-[2-(dimethylamino)ethoxy]indol-2-carbonyl}-5,7-dinitro-1,2-dihydro-3H-benzo[e]indole], the melting point was 263 to 264 °C.
With CN(C)CCOc1ccc2[nH]c(C(=O)N3CC(CCl)c4c3cc([N+](=O)[O-])c3cc(S(C)(=O)=O)ccc43)cc2c1 (centres unmarked) (as salt: HCl) [Compound 24, 1-(Chloromethyl)-3-{5-[2-(dimethylamino)ethoxy]indol-2-carbonyl}-7-(methylsulfonyl)-5-nitro-1,2-dihydro-3H-benzo[e]indole] the melting point was 250 to 252 °C.
CCC(=O)NS(=O)(=O)c1ccc2c3c(cc([N+](=O)[O-])c2c1)N(C(=O)c1cc2cc(OCCN(C)C)ccc2[nH]1)CC3CCl (centres unmarked) gave a melting point of 221 to 225 °C.
In the case of CC(=O)c1cccc2c3c(cc([N+](=O)[O-])c12)N(C(=O)c1cc2cc(OCCN(C)C)ccc2[nH]1)CC3CCl (centres unmarked) [Compound 4], the IC50 [1] is reported as 0.2 µM, the “HCR (hypoxic cytotoxicity ratio) HT29” value [1] is reported as 5.2 and the IC50 [2] is reported as 0.64 µM. The “HCR (hypoxic cytotoxicity ratio) SKOV3” value [2] was 12.
In the case of CN(C)CCOc1ccc2[nH]c(C(=O)N3CC(CCl)c4c3cc([N+](=O)[O-])c3cc(C(=O)NCCO)ccc43)cc2c1 (centres unmarked) [Compound 19, 1-(Chloromethyl)-3-(5-[2-(dimethylamino)ethoxy]indol-2-carbonyl)-N-(2-hydroxyethyl)-5-nitro-1,2-dihydro-3H-benzo[e]indole-7-carboxamide], the IC50 ([1]; Homo sapiens, HT-29) is reported as 12 µM, the “HCR (hypoxic cytotoxicity ratio) HT29” value [1] is reported as 490 and the IC50 ([2]; Homo sapiens, SK-OV-3) is reported as 8.9 µM. The “HCR (hypoxic cytotoxicity ratio) SKOV3” value [2] was 160.
In the case of CN(C)CCOc1ccc2[nH]c(C(=O)N3CC(CCl)c4c3cc([N+](=O)[O-])c3cc(S(=O)(=O)N(C)C)ccc43)cc2c1 (centres unmarked) [Compound 38, 1-(Chloromethyl)-3-{5-[2-(dimethylamino)ethoxy]indol-2-carbonyl}-N,N-dimethyl-5-nitro-1,2-dihydro-3H-benzo[e]indole-7-sulfonamide], the IC50 ([1]; Homo sapiens, HT-29) is reported as 1.1 µM, the “HCR (hypoxic cytotoxicity ratio) HT29” value [1] is reported as 3.6 and the IC50 ([2]; Homo sapiens, SK-OV-3) is reported as 0.5 µM. The “HCR (hypoxic cytotoxicity ratio) SKOV3” value [2] was 2.4.
In the case of COc1cc2cc(C(=O)N3CC(CCl)c4c3cc([N+](=O)[O-])c3ccccc43)[nH]c2c(OC)c1OC (centres unmarked) [Compound R1, reference compound], the IC50 ([1]; Homo sapiens, HT-29) is reported as 3.4 µM, the “HCR (hypoxic cytotoxicity ratio) HT29” value [1] is reported as 2.5 and the IC50 ([2]; Homo sapiens, SK-OV-3) is reported as 4.2 µM. The “HCR (hypoxic cytotoxicity ratio) SKOV3” value [2] was 2.8.
With COc1cc2cc(C(=O)N3CC(CCl)c4c3cc([N+](=O)[O-])c3cc(S(N)(=O)=O)ccc43)[nH]c2c(OC)c1OC (centres unmarked) [Compound 25, 1-(Chloromethyl)-5-nitro-3-(5,6,7-trimethoxyindol-2-carbonyl)-1,2-dihydro-3H-benzo[e]indole-7-sulfonamide] the IC50 ([1]; Homo sapiens, HT-29) was 43 µM, the “HCR (hypoxic cytotoxicity ratio) HT29” value [1] was 3.6 and the IC50 ([2]; Homo sapiens, SK-OV-3) was 37 µM. For the same molecule, the “HCR (hypoxic cytotoxicity ratio) SKOV3” value [2] was 10.
With COc1cc2cc(C(=O)N3CC(CCl)c4c3cc([N+](=O)[O-])c3cccc([N+](=O)[O-])c43)[nH]c2c(OC)c1OC (centres unmarked) [Compound 51, 1-(Chloromethyl)-5,9-dinitro-(5,6,7-trimethoxyindol-2-carbonyl)-1,2-dihydro-3H-benzo[e]indole] the IC50 [1] was 34 µM, the “HCR (hypoxic cytotoxicity ratio) HT29” value [1] was 1.2 and the IC50 [2] was 55 µM.
In the case of CN(C)CCOc1ccc2[nH]c(C(=O)N3CC(CCl)c4c3cc([N+](=O)[O-])c3cc(S(=O)(=O)NN)ccc43)cc2c1.Cl.Cl (centres unmarked) [Compound 31, 1-(Chloromethyl)-3-{5-[2-(dimethylamino)ethoxy]indol-2-carbonyl}-5-nitro-1,2-dihydro-3H-benzo[e]indole-7-sulfonohydrazide dihydrochloride], the IC50 ([1]; Homo sapiens, HT-29) is reported as 31 µM, the “HCR (hypoxic cytotoxicity ratio) HT29” value [1] is reported as 220 and the IC50 ([2]; Homo sapiens, SK-OV-3) is reported as 33 µM. The “HCR (hypoxic cytotoxicity ratio) SKOV3” value [2] was 160.
For COc1cc2cc(C(=O)N3CC(CCl)c4c3cc([N+](=O)[O-])c3cc(C#N)ccc43)[nH]c2c(OC)c1OC (centres unmarked) [Compound 21], the IC50 [1] was 5.3 µM, the “HCR (hypoxic cytotoxicity ratio) HT29” value [1] was 2.5 and the IC50 [2] was 6.4 µM. The “HCR (hypoxic cytotoxicity ratio) SKOV3” value [2] was 13.
In the case of CNS(=O)(=O)c1ccc2c3c(cc([N+](=O)[O-])c2c1)N(C(=O)c1cc2cc(OCCN(C)C)ccc2[nH]1)CC3CCl (centres unmarked) [Compound 32, 1-(Chloromethyl)-3-{5-[2-(dimethylamino)ethoxy]indol-2-carbonyl}-N-methyl-5-nitro-1,2-dihydro-3H-benzo[e]indole-7-sulfonamide], the IC50 ([1]; Homo sapiens, HT-29) is reported as 2.7 µM, the “HCR (hypoxic cytotoxicity ratio) HT29” value [1] is reported as 24 and the IC50 ([2]; Homo sapiens, SK-OV-3) is reported as 2.6 µM. The “HCR (hypoxic cytotoxicity ratio) SKOV3” value [2] was 21.

Source: patent US7718688B2, “Nitrobenzindoles and their use in cancer therapy” (Auckland Uniservices Limited, priority 2004, dated 2010)
